Patent publication US8778643B2, “Methods for increasing lipid levels and producing triacylglycerols in algae” (priority 2012, dated 2014)
Where two headings read alike, the source gives them in different places.

Columns and labels:
Nannochloropsis oculata [1] = conditions: for effect on lipid production / lipid levels: microplate assay, multiple concentrations
[2] = biological target: phosphatidylinositol-specific phospholipase C (PI-PLC); conditions: cited from earlier work
CDK4/cyclin D1 = CDK4/cyclin D1 (Homo sapiens, UniProt P11802); conditions: cited from earlier work
Cdk2/cyclin A = Cdk2/cyclin A (Homo sapiens, UniProt P24941); conditions: CDK2/A; cited from earlier work
Nannochloropsis salina [3] = conditions: for effect on lipid production / lipid levels: microplate assay, multiple concentrations
[4] = tested on: Phaeodactylum tricornutum; assay: Microplate assay: growth (absorbance 680 nm) and intracellular lipids (Nile Red fluorescence); type: cell-based; conditions: for % Inc: increase of lipid production, P. tricornutum; for effect on lipid production / lipid levels: microplate assay, multiple concentrations
FABI = conditions: cited from earlier work
Nannochloris sp. [5] = assay: Microplate assay: growth (absorbance 680 nm) and intracellular lipids (Nile Red fluorescence); type: cell-based; conditions: for effect on lipid production / lipid levels: microplate assay, multiple concentrations; for Nile Red Fluorescence % Increase: Nannochloris sp., initial screening, p<0.05
microalgae [6] = assay: Microplate assay (growth, Nile Red lipids), algae strain not stated; conditions: microplate screening; strain not given; listed as (−)-epigallocatechin gallate
[7] = tested on: Phaeodactylum tricornutum; assay: 500 mL batch culture: growth, dry weight and lipid extract (gravimetric); type: cell-based; conditions: P. tricornutum, 500 mL culture, 4 μM in water, two replicates
Description: (§1) Batch cultures were grown in 500 mL Pyrex media bottles with stirring and air bubbling (homemade manifold with Petco air pump, 2-4% CO2). Incoming air was sterile filtered by Polyvent 4 disposable filters (Whatman, Kent, UK). […] To minimize bacterial contamination, all equipment and materials were autoclaved and media was added to flask in a Purifier Vertical Clean bench (Labconco, Kansas City, Mo.). […] The amount of DMSO is standardized for all experiments to 0.4%.
(§2) For all compound cultures, the 2 mL DMSO stock solution was added to media (without algae) first and mixed well. Control cultures were grown without DMSO. DMSO controls consisted of 0.04-1.0% DMSO. After the addition of algae and media, the container was plugged with a bug stopper vented closure cap and mixed thoroughly. Absorbance is measured immediately for Day 0 analysis. Afterward, absorbance was measured every 1-2 days with a cuvette (1 mL volume) on the Thermo Scientific Genesys 10S V is Spectrophotometer (ThermoFisher, San Jose) at 680 nm.
(§3) Batch cultures were also repeated in triplicate and compared to a control culture grown at the same time. Algae were harvested and lipids were extracted for gravimetric analysis.
(§4) The nonpolar algal extracts were harvested from 500 mL cultures when indicated on growth curves, a minimum of 3 days into stationary phase.
(§5) Cell density was monitored by measuring absorbance at 680 nm every 1-2 days.
(§6) 500-mL cultures were harvested 6 days into stationary phase based on absorbance values. Cells were concentrated by centrifugation and lyophilization to remove water. Nonpolar lipids were extracted by sonication and solvent (chloroform-methanol and PBS buffer). […] Changes in lipid levels for batch cultures were determined by crude lipid extract mass.

Nannochloropsis salina [8] = assay: as above; type: cell-based; conditions: for Lipid productivity / Lipid content / Change in Lipids / Specific Growth Rate: N. salina; for Lipid content: dried lipid extract per dry biomass; for Change in Lipids: gravimetric, relative to averaged control without DMSO; for Specific Growth Rate: mid-exponential growth phase
Description: as §1, §2, §3
Cultures were harvested at day 6 in stationary phase. Cultures were pelleted, lyophilized, and extracted side-by-side. The experiment was performed in triplicate.
The nonpolar algal extracts were harvested from 500 mL cultures when indicated on growth curves, a minimum of 3 days into stationary phase. […] Cells were crushed and nonpolar lipids were extracted by sonication (Fisher Scientific Model 120 Sonic Dismembrator, ThermoFisher, San Jose) for 1 minute in chloroform, followed by chloroform-methanol extractions, washed with PBS butter, and dried under vacuum.^55-60 The crude non-polar algae extracts were then analyzed by ^1H Nuclear Magnetic Resonance (^1H NMR) for verification of TAG presence and examination of the purity of the extract (determination of level of chlorophyll).
as §5, §6

Nannochloropsis oculata [9] = assay: Lipid composition of batch culture extracts (fatty acid saturation / PUFA by 1H NMR, MALDI-TOF, GC/MS); type: cell-based
Description: The nonpolar algal extracts were harvested from 500 mL cultures when indicated on growth curves, a minimum of 3 days into stationary phase. […] Cells were crushed and nonpolar lipids were extracted by sonication (Fisher Scientific Model 120 Sonic Dismembrator, ThermoFisher, San Jose) for 1 minute in chloroform, followed by chloroform-methanol extractions, washed with PBS butter, and dried under vacuum.^55-60 The crude non-polar algae extracts were then analyzed by ^1H Nuclear Magnetic Resonance (^1H NMR) for verification of TAG presence and examination of the purity of the extract (determination of level of chlorophyll). The extracts were then divided for analysis; one part for transesterification, one part to save as crude extract, and one part for SPE separation and MALDI-TOF analysis of TAGs.
Triacylglycerols can be isolated by solid-phase extraction (SPE) with 500 mg silica SPE cartridges (Silicycle, Quebec). The nonpolar extract is dissolved in 300 μL hexanes, and loaded on the SPE cartridge primed with hexanes. A mixture of 80:20:1 hexanes/diethyl ether/acetic acid was used as mobile phase to elute the TAGs.^61 SPE removes any chlorophyll in this process. Residual polar fraction containing polar lipids and chlorophyll was obtained by elution with acetone. All extracts and TAG fractions were dried under vacuum and stored under argon in amber vials at −20° C. before spectroscopic analysis. After SPE, the purified TAG fraction was reanalyzed with ^1H NMR spectroscopy for TAG characterization.
The TOF was in Reflectron mode with laser intensity from 5500-6500 Volts. Each acquisition consisted of 2500 shots with a focus mass of 900 Da, and a scan range of m/z 400-1100. Multiple acquisition scans were performed at different laser intensities to determine optimal conditions. Samples for the MALDI-TOF were diluted to 5 mg/mL in hexane, and spotted in the fast-evaporation method in a 1:2 ratio with DHB (2,5-dihydroxybenzoic acid) as the matrix. Re-spotting with methanol allowed for the matrix and sample to mix without hexane interactions, and allowed for better crystal formation. All samples on MALDI plate were allowed to dry before MS analysis. Data was normalized to base peak in all cases.
After the initial weight was recorded, the nonpolar extract set aside for transesterification was dissolved in 3.0 mL of 0.6 M sulfuric acid in methanol and stirred vigorously at 60° C. for 45 minutes.
Initial GC/MS temperature was 50° C. and end was 200° C. over at a one hour period for optimal FAME peak separation.
Peak assignment of fatty acids and their derivatives are based on NMR spectroscopic studies of previously reported algal lipid extracts^9 and comparison to standards such as olive oil (ACROS) and fatty acid mixtures.
(§7) We developed a quick and robust method to screen if the screened compound effect fatty acid saturation levels using ^1H NMR spectroscopy. The amount of saturated fatty acids (SFA), monounsaturated fatty acids (MUFAs), and polyunsaturated fatty acids (PUFAs) was determined using peak area ratios.
(§8) Calculated based on ^1H NMR integral ratios for the proton signals for the methyl group of PUFA components vs. the methyl groups of monounsaturated and saturated components.

microalgae [10] = assay: 500 mL batch culture (growth, gravimetric lipids), algae strain not stated; type: cell-based
Nannochloropsis oculata [11] = assay: 500 mL batch culture: growth, dry weight and lipid extract (gravimetric); type: cell-based
Description: as §1, §2, §3, §4, §5, §6

Nannochloris sp. [12] = assay: as above; type: cell-based
Nannochloropsis sp. = assay: Microplate assay: increase of lipid production (Table 17); type: cell-based; conditions: best conc. 2.4 nM
From the text: We also tested a collection with more antioxidants, kinase inhibitors, and further compounds for increase of lipid production with N. salina, P. tricornutum, N. oculata, and Nannochloropsis sp.

[13] = tested on: Phaeodactylum tricornutum
Description: The nonpolar algal extracts were harvested from 500 mL cultures when indicated on growth curves, a minimum of 3 days into stationary phase. […] Cells were crushed and nonpolar lipids were extracted by sonication (Fisher Scientific Model 120 Sonic Dismembrator, ThermoFisher, San Jose) for 1 minute in chloroform, followed by chloroform-methanol extractions, washed with PBS butter, and dried under vacuum.^55-60 The crude non-polar algae extracts were then analyzed by ^1H Nuclear Magnetic Resonance (^1H NMR) for verification of TAG presence and examination of the purity of the extract (determination of level of chlorophyll). […]
After the initial weight was recorded, the nonpolar extract set aside for transesterification was dissolved in 3.0 mL of 0.6 M sulfuric acid in methanol and stirred vigorously at 60° C. for 45 minutes. […]
as §7, §8

[14] = biological target: histone lysine methyltransferase G9a (Homo sapiens, UniProt Q96KQ7); conditions: cited from earlier work
[15] = higher concentrations (>400 nM), microplate
[16] = 40 μM, 500 mL culture, day 6 in stationary phase
[17] = 500 mL culture, 4 μM in water, two replicates
[18] = 200 nM, initial microplate screen, relative to control
[19] = 20 μM, initial microplate screen, relative to control

Sequence of CDK4/cyclin D1 (P11802 whole entry, species assumed): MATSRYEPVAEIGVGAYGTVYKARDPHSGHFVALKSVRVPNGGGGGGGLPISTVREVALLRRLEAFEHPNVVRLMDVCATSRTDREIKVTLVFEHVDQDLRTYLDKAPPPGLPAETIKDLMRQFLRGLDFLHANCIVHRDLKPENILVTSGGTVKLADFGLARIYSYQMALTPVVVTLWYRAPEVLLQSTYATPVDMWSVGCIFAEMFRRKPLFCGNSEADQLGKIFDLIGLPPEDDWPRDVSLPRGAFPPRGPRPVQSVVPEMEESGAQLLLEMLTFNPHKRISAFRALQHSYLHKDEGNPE
Sequence of CDK4/cyclin D1 (P24385 whole entry partner, species assumed): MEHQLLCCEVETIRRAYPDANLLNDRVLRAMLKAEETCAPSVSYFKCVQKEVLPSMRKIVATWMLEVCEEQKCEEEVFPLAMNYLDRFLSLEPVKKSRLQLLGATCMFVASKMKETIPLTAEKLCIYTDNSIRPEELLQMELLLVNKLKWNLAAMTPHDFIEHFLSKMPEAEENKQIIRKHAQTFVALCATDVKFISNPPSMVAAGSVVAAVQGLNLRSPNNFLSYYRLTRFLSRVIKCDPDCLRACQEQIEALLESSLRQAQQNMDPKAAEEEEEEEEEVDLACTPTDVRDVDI
Sequence of histone lysine methyltransferase G9a (Q96KQ7 whole entry): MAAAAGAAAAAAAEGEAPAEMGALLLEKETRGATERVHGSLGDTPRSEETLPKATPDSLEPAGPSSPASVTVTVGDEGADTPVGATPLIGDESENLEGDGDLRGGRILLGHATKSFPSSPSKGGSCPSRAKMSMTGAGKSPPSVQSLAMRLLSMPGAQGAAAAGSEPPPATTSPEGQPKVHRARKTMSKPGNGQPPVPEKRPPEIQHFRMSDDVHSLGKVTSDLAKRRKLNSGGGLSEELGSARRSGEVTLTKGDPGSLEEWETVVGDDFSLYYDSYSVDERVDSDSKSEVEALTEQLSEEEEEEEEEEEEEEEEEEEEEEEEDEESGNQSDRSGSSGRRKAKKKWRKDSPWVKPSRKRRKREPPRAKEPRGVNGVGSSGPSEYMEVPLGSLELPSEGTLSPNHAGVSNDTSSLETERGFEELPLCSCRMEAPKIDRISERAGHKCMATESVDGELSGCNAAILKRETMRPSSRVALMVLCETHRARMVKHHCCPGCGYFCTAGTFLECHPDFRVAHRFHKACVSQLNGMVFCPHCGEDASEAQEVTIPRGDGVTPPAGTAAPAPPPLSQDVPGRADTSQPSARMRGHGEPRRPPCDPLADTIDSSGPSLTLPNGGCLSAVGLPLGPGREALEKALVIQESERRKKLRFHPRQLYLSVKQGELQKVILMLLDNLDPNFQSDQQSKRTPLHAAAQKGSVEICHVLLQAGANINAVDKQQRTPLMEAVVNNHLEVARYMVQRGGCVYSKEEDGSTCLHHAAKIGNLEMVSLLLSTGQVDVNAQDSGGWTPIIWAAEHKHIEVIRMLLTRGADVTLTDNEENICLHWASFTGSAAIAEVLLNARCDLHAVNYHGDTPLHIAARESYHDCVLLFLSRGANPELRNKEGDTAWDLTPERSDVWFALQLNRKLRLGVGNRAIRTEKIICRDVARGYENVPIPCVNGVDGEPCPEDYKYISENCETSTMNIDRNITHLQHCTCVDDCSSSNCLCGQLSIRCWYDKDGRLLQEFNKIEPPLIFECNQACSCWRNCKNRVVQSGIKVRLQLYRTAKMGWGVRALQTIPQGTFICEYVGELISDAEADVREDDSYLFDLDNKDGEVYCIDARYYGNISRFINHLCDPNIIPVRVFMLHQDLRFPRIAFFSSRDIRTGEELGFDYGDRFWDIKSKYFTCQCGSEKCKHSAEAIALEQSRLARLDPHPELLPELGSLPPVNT

CCCCCCCCCCCCCCCCCCOCC(COP(=O)([O-])OCC[N+](C)(C)C)OC (centres unmarked) [ET-18-OCH3, 2-Methoxy-3-(octadecyloxy)propyl 2-(trimethylammonio)ethyl phosphate]
% change in abs (Nannochloropsis oculata [1]; N. oculata, 10 μM): 5.73%
% in NR fl (Nannochloropsis oculata [1]; N. oculata, 10 μM): 50.05%
% change in abs (Nannochloropsis oculata [1]; N. oculata, 40 μM): −5.90%
% in NR fl (Nannochloropsis oculata [1]; N. oculata, 40 μM): 57.25%
IC50 [2]: 9.6 µM

O=C1NC(=O)c2c1c1c3ccccc3[nH]c1c1[nH]c3cc(Br)ccc3c21 [CDK4 Inhibitor 3, 2-Bromo-12,13-dihydro-5H-indolo[2,3a]pyrrolo[3,4-c]carbazole-5,7(6H)-dione]
IC50 (CDK4/cyclin D1; CDK4/D1): 6 µM
IC50 (Cdk2/cyclin A): > 200 µM

O=C(O[C@@H]1Cc2c(O)cc(O)cc2O[C@@H]1c1ccc(O)c(O)c1)c1cc(O)c(O)c(O)c1 [(−)-epicatechin gallate, [(2R,3R)-2-(3,4-dihydroxyphenyl)-5,7-dihydroxy-3,4-dihydro-2H-chromen-3-yl] 3,4,5-trihydroxybenzoate]
effect on lipid production / lipid levels (Nannochloropsis oculata [1]): lipid production increased
effect on lipid production / lipid levels (Nannochloropsis salina [3]): lipid production increased
% Inc ([4]; best conc. 156 nM): 77.89%
effect on lipid production / lipid levels [4]: lipid production increased
concentration of the highest lipid increase ([4]; microplate, catechin screen (FIG. 14)): 39 to 56 nM
IC50 (FABI): 0.2 µM
effect on lipid production / lipid levels (Nannochloris sp. [5]): lipid production increased

O=C(O[C@@H]1Cc2c(O)cc(O)cc2O[C@@H]1c1cc(O)c(O)c(O)c1)c1cc(O)c(O)c(O)c1 [EGCG, [(2R,3R)-5,7-dihydroxy-2-(3,4,5-trihydroxy-phenyl)-3,4-dihydro-2H-chromen-3-yl] 3,4,5-trihydroxybenzoate]
Nile Red Fluorescence % Increase (Nannochloropsis oculata [1]; N. oculata, compounds tested at 200 nM, initial screening, p<0.05): 207.5%
effect on lipid production / lipid levels (Nannochloropsis oculata [1]): lipid production increased
% Increase based on Nile Red Fluorescence Intensity (Nannochloropsis salina [3]; N. salina, 493 nM, DMSO delivery, added t=day 0): 87%
lipid increase (Nannochloropsis salina [3]; [15]): > 100%
effect on lipid production / lipid levels (Nannochloropsis salina [3]): lipid production increased
increase in (intracellular) lipid levels, Nile Red (microalgae [6]): more than 100%
lipid increase [4, 15]: > 100%
% Inc ([4]; best conc. 10 nM): 45.03%
effect on lipid production / lipid levels [4]: lipid production increased
Lipid productivity [7]: 4.4 ± 2.4 mgL^−1day^−1
Lipid content ([7]; dried lipid extract per dry biomass): 17.2 ± 1.3 % w/w
Change in Lipids ([7]; gravimetric, relative to averaged control without DMSO): 6%
Specific Growth Rate ([7]; mid-exponential growth phase): 0.19 ± 0.02 day⁻¹
Absorbance at harvest (Nannochloropsis salina [8]; [16]): 1.41 ± 0.08
Dry weight (Nannochloropsis salina [8]; [16]): 337.40 ± 62.55 mg
Extract Weight (Nannochloropsis salina [8]; [16]): 94.77 ± 9.47 mg
Number of Cells (Nannochloropsis salina [8]; [16]): 1.36E+09
Recovered Weight (Nannochloropsis salina [8]; [16]): 330.03 ± 78.14 mg
effect on growth and lipid levels (Nannochloropsis salina [8]; 500 mL batch culture): increased growth and lipid extract levels
Lipid productivity (Nannochloropsis salina [8]; [17]): 7.1 ± 1.2 mgL^−1day^−1
Lipid content (Nannochloropsis salina [8]; [17]): 32.4 ± 0.1 % w/w
Change in Lipids (Nannochloropsis salina [8]; [17]): 46%
Specific Growth Rate (Nannochloropsis salina [8]; [17]): 0.24 ± 0.01 day⁻¹
Lipid productivity (Nannochloropsis salina [8]; 500 mL culture, 40 μM): 6.3 ± 2.2 mgL^−1day^−1
Lipid content (Nannochloropsis salina [8]; 500 mL culture, 40 μM): 23.1 ± 10.6 % w/w
Change in Lipids (Nannochloropsis salina [8]; 500 mL culture, 40 μM): 18%
Specific Growth Rate (Nannochloropsis salina [8]; 500 mL culture, 40 μM): 0.22 ± 0.06 day⁻¹
IC50 (FABI; FABI (FAB1)): 0.2 µM
SFAs (% of total lipids) (Nannochloropsis oculata [9]; 4 μM, 1H NMR, Normal 24): 57 % of total lipids
n3 PUFAs (% of UFAs) (Nannochloropsis oculata [9]; 4 μM, 1H NMR, Normal 37): 65 % of UFAs
All other PUFAs and MUFAs (% of UFAs) (Nannochloropsis oculata [9]; 4 μM, 1H NMR, Normal 63): 35 % of UFAs
UFAs (% of total lipids) (Nannochloropsis oculata [9]; 4 μM, 1H NMR, Normal 76): 43 % of total lipids
SFAs (%) (Nannochloropsis oculata [9]; N. oculata, 400 nM, n=1, Normal 0 ± 1): 10%
MUFAs (%) (Nannochloropsis oculata [9]; N. oculata, 400 nM, n=1, Normal 4 ± 7): 5%
n3 PUFAs (%) (Nannochloropsis oculata [9]; N. oculata, 400 nM, n=1, Normal 28 ± 4): 20%
PUFAs (%) (Nannochloropsis oculata [9]; N. oculata, 400 nM, n=1, Normal 96 ± 7): 85%
Nile Red percent increase (Nannochloris sp. [5]; 6 nM, dose-response microplate screen): 436%
Nile Red percent increase (Nannochloris sp. [5]; 18.6 nM, dose-response microplate screen): 199%
Nile Red percent increase (Nannochloris sp. [5]; 55 nM, dose-response microplate screen): 107%
Absorbance (percent increase) (Nannochloris sp. [5]; [18]): −1.0%
Nile Red percent increase (Nannochloris sp. [5]; [18]): 92.1%
Absorbance (percent increase) (Nannochloris sp. [5]; [19]): +1.9%
Nile Red percent increase (Nannochloris sp. [5]; [19]): 92.5%
Nile Red Fluorescence % Increase (Nannochloris sp. [5]; compounds tested at 20 μM): 214.9%
lipid increase (Nannochloris sp. [5]; [15]): > 100%
effect on lipid production / lipid levels (Nannochloris sp. [5]): lipid production increased
effect on growth and lipid levels (microalgae [10]; 500 mL batch cultures (Table 30)): positive increases in growth and lipid levels
increase of lipids by dry weight (microalgae [10]; 500 mL cultures (FIG. 19)): > 40%
effect on growth and lipid levels (Nannochloropsis oculata [11]; 500 mL batch culture): increased growth and lipid extract levels
Absorbance at harvest (Nannochloropsis oculata [11]; N. oculata, 400 nM EGCG, n=4): 1.855 ± 0.142
Dry weight (Nannochloropsis oculata [11]; N. oculata, 400 nM EGCG, n=4): 290.7 ± 34.5
Extract Weight (Nannochloropsis oculata [11]; N. oculata, 400 nM EGCG, n=4): 62.3 ± 21.6
Lipid productivity (Nannochloropsis oculata [11]; N. oculata, 500 mL culture, 4 μM): 4.9 ± 1.7 mgL^−1day^−1
Lipid content (Nannochloropsis oculata [11]; N. oculata, 500 mL culture, 4 μM, dried lipid extract per dry biomass): 20.6 ± 6.9 % w/w
Change in Lipids (Nannochloropsis oculata [11]; N. oculata, 500 mL culture, 4 μM, gravimetric, relative to averaged control without DMSO): 41%
Specific Growth Rate (Nannochloropsis oculata [11]; N. oculata, 500 mL culture, 4 μM, mid-exponential growth phase): 0.17 ± 0.03 day⁻¹
effect on lipid levels (Nannochloropsis oculata [11]; batch culture, combined with sodium bicarbonate addition): increases lipid levels
effect on growth and lipid levels (Nannochloris sp. [12]; 500 mL batch culture): increased growth and lipid extract levels
Lipid productivity (Nannochloris sp. [12]; Nannochloris sp., 500 mL culture, 40 nM): 4.3 ± 0.8 mgL^−1day^−1
Change in Lipids (Nannochloris sp. [12]; Nannochloris sp., 500 mL culture, 40 nM, gravimetric, relative to averaged control without DMSO): 39%
Specific Growth Rate (Nannochloris sp. [12]; Nannochloris sp., 500 mL culture, 40 nM, mid-exponential growth phase): 0.17 ± 0.03 day⁻¹

Cc1c(C)c2c(c(C)c1O)CC[C@@](C)(CCC[C@H](C)CCC[C@H](C)CCCC(C)C)O2 (racemic) [DL-α-Tocopherol (Vitamin E), (2R)-2,5,7,8-tetramethyl-2-[(4R,8R)-4,8,12-trimethyltridecyl]-3,4-dihydrochromen-6-ol]
% Inc (Nannochloropsis sp.): 31.44%

O=C([O-])O.[Na+] [sodium bicarbonate]
effect on PUFA levels [13]: increases PUFA levels

COc1ccc(OC)c2c(=S)c3ccccc3[nH]c12 [CDK4 Inhibitor II NSC]
IC50 (CDK4/cyclin D1; CDK4/cyclin D1): 0.2 µM

COC(=O)C=Cc1cc(O)ccc1O [Erbstatin analog, 2,5-Dihydroxymethylcinnamate]
Absorbance (percent increase) (Nannochloris sp. [5]; [18]): −7.6%
Nile Red percent increase (Nannochloris sp. [5]; [18]): 90.7%
Nile Red Fluorescence % Increase (Nannochloris sp. [5]; compounds tested at 200 nM): 80.2%
Nile Red Fluorescence % Increase (Nannochloris sp. [5]; compounds tested at 20 μM): 40.5%
IC50 [14]: 2.82 µM
